Tested on: 817829-284-R-J1-PDC complex spheroid viability
Assay: Anticancer human tumor 817829-284-R-J1-PDC patient-derived colon adenocarcinoma cell line growth inhibition [POLQ]
Conditions: for IC50: curve of first compound; for viability, T/C: stronger effect = lower value
Procedure: Multicellular complex tumor spheroid response to Polymerase (POL) inhibitors (novobiocin, ART-558, RP6685) in combination with a variety of drugs and investigational agents in selected tumor cell lines
The POL inhibitors (novobiocin, ART-558, and RP6685) were evaluated both individually and in combination with standard of care and investigational anticancer small molecules within a complex spheroid model of solid tumors. . Complex spheroids include a stromal component modeled by human endothelial cells (HUVEC) and fibroblasts modeled by human mesenchymal stem cells (MSCs). The concentration ranges selected for each drug and investigational agent were based upon clinically achievable concentrations if the clinical Cmax of the agent was known.
Compounds. The drugs and investigational agents: novobiocin (NSC847541), ART-558 (NSC835418), RP-6685 (NSC848927), peposertib (NSC802822), ceralasertib (NSC780249), elimusertib (NSC800525), camonsertib (NSC841442), AZD-1390 (NSC803789), olaparib (NSC753686), talazoparib (NSC767125), rucaparib (NSC756644), sotorasib (NSC818433), MRTX-1133 (NSC836407), SN-38 (NSC673596), topotecan (NSC609699), epotoside (NSC141540), doxorubicin (NSC123127), gemcitabine (NSC613327), 5-fluorouracil (NSC19893), paclitaxel (NSC125973), vemurafenib (NSC761431), MSA-2 (NSC828583), SN-011 (NSC837082), adavosertib (NSC754352), prexasertib (NSC758257), carboplatin (NSC241240) and oxaliplatin (NSC266046), were obtained from the National Cancer Institute (NCI) Developmental Therapeutics Program Chemical Repository (21). The FDA-approved anticancer drug set is available from the Developmental Therapeutics Program at https://dtp.cancer.gov/organization/dscb/obtaining/. […] The stock solutions were prepared in dimethyl sulfoxide (DMSO, Sigma-Aldrich, St. Louis, MO, cat. D2650), except for the platinum compounds which were prepared in saline (Quality Biological, Gaithersburg, MD, cat. 114-055-101), at 800-fold the tested concentration and stored at -70 degrees C prior to their use. All drugs and investigational agents were tested over a range starting from a high concentration at or near the clinical Cmax and decreasing in half-log increments. If the clinical Cmax for an agent had not been determined, the highest concentration tested was 10 microM, except for SN-38, which was tested at a high concentration of 1 microM.
Cell Culture. All cells were maintained in an incubator at 37 degrees C and 5% CO2 with 95% humidity. The PDC lines were cultured according to standard operating procedures established by the NCI PDMR (https://pdmr.cancer.gov). Table 3 of the manuscript, lists the cell lines along with the number of the three cell types plated to form the mct-spheroids and media for tumor cell growth. After thawing, all PDC lines, except 997537-175-T-J1-PDC and 415267-285-R-J2-PDC, were cultured in Matrigel-coated flasks prepared with a working solution of 1X Ham's F-12 nutrient mix, without supplementation (Thermo Fisher Scientific, cat. 11765054), 100 U/mL penicillin-streptomycin (Thermo Fisher Scientific, cat. 15140122), and 2.5% Matrigel (Corning Inc., Corning, NY, cat. 354248) for the first three passages. The two PDC lines 997537-175-T-J1-PDC and 415267-285-R-J2-PDC were cultured on uncoated flasks. The 857933-349-R-J2-PDC line was cultured in 6C/Colon 1B media containing advanced DMEM/F-12 (Thermo Fisher Scientific, cat. 12634028), 10 mM HEPES (Thermo Fisher Scientific, cat. 15630080), 1X GlutaMAX supplement (Thermo Fisher Scientific, cat. 35050061), 0.1 mg/mL primocin (InvivoGen, San Diego, CA, cat. ant-pm-2), 10% defined fetal bovine serum, heat inactivated (HyClone Laboratories Inc., Logan, UT, cat. SH30070.03HI), 50% L-WRN conditioned media (ATCC, cat. CRL-3276), 1.25 mM N-Acetyl-L-cysteine (Sigma-Aldrich, cat. A9165), 10 mM nicotinamide (Sigma-Aldrich, cat. N0636), 1X B-27 supplement (Thermo Fisher Scientific, cat. 17504044), 1X N-2 supplement (Thermo Fisher Scientific, cat. […]

[1] = second compound 0.0316 µM, first compound 0.0316 µM
[2] = second compound 0.0316 µM, first compound 0.1 µM
[3] = second compound 0.0316 µM, first compound 0.316 µM
[4] = second compound 0.0316 µM, first compound 1 µM
[5] = second compound 0.1 µM, first compound 0.0316 µM
[6] = second compound 0.1 µM, first compound 0.1 µM
[7] = second compound 0.1 µM, first compound 0.316 µM
[8] = second compound 0.1 µM, first compound 1 µM
[9] = second compound 0.316 µM, first compound 0.0316 µM
[10] = second compound 0.316 µM, first compound 0.1 µM
[11] = second compound 0.316 µM, first compound 0.316 µM
[12] = second compound 0.316 µM, first compound 1 µM
[13] = second compound 1 µM, first compound 0.0316 µM
[14] = second compound 1 µM, first compound 0.1 µM
[15] = second compound 1 µM, first compound 0.316 µM
[16] = second compound 1 µM, first compound 1 µM
[17] = second compound 3.16 µM, first compound 0.0316 µM
[18] = second compound 3.16 µM, first compound 0.1 µM
[19] = second compound 3.16 µM, first compound 0.316 µM
[20] = second compound 3.16 µM, first compound 1 µM
[21] = second compound 10 µM, first compound 0.0316 µM
[22] = second compound 10 µM, first compound 0.1 µM
[23] = second compound 10 µM, first compound 0.316 µM
[24] = second compound 10 µM, first compound 1 µM
[25] = second compound 0.0316 µM, first compound 3.16 µM
[26] = second compound 0.0316 µM, first compound 10 µM
[27] = second compound 0.1 µM, first compound 3.16 µM
[28] = second compound 0.1 µM, first compound 10 µM
[29] = second compound 0.316 µM, first compound 3.16 µM
[30] = second compound 0.316 µM, first compound 10 µM
[31] = second compound 1 µM, first compound 3.16 µM
[32] = second compound 1 µM, first compound 10 µM
[33] = second compound 3.16 µM, first compound 3.16 µM
[34] = second compound 3.16 µM, first compound 10 µM
[35] = second compound 10 µM, first compound 3.16 µM
[36] = second compound 10 µM, first compound 10 µM
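Further: spheroids exposed to compounds for 7 days.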
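Wherever viability, T/C is given: 100% = DMSO vehicle-treated spheroids.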

## COc1cccc(OCCCN)c1-c1cc(Nc2cnc(C#N)cn2)n[nH]1 + Nc1ccc(C#CCN(C(=O)Cc2ncc(C(F)(F)F)cc2C(F)(F)F)c2ccc(F)cc2)nn1
Second compound 0.0316 µM
  IC50: 5.44 nM
Second compound 0.1 µM
  IC50: 5.2 nM
Second compound 0.316 µM
  IC50: 5.7 nM
Second compound 1 µM
  IC50: 5.69 nM
Second compound 3.16 µM
  IC50: 5.41 nM
Second compound 10 µM
  IC50: 5.7 nM
Second compound 0.0316 µM, first compound 0.00316 µM
  viability, T/C: 82.4%
Second compound 0.0316 µM, first compound 0.01 µM
  viability, T/C: 13.8%
[1]
  viability, T/C: 5.45%
[2]
  viability, T/C: 4.83%
[3]
  viability, T/C: 4.44%
[4]
  viability, T/C: 3.65%
Second compound 0.1 µM, first compound 0.00316 µM
  viability, T/C: 77.1%
Second compound 0.1 µM, first compound 0.01 µM
  viability, T/C: 14.6%
[5]
  viability, T/C: 4.6%
[6]
  viability, T/C: 5.23%
[7]
  viability, T/C: 3.56%
[8]
  viability, T/C: 3%
Second compound 0.316 µM, first compound 0.00316 µM
  viability, T/C: 87%
Second compound 0.316 µM, first compound 0.01 µM
  viability, T/C: 14.7%
[9]
  viability, T/C: 4.16%
[10]
  viability, T/C: 5.93%
[11]
  viability, T/C: 4.07%
[12]
  viability, T/C: 3.09%
Second compound 1 µM, first compound 0.00316 µM
  viability, T/C: 84.7%
Second compound 1 µM, first compound 0.01 µM
  viability, T/C: 16.7%
[13]
  viability, T/C: 5.79%
[14]
  viability, T/C: 4.2%
[15]
  viability, T/C: 4.04%
[16]
  viability, T/C: 2.8%
Second compound 3.16 µM, first compound 0.00316 µM
  viability, T/C: 84%
Second compound 3.16 µM, first compound 0.01 µM
  viability, T/C: 11.2%
[17]
  viability, T/C: 5.75%
[18]
  viability, T/C: 5.62%
[19]
  viability, T/C: 3.65%
[20]
  viability, T/C: 3.11%
Second compound 10 µM, first compound 0.00316 µM
  viability, T/C: 87.2%
Second compound 10 µM, first compound 0.01 µM
  viability, T/C: 14.5%
[21]
  viability, T/C: 5.81%
[22]
  viability, T/C: 3.93%
[23]
  viability, T/C: 4.01%
[24]
  viability, T/C: 3.39%

## Nc1ccn(C2OC(CO)C(O)C2(F)F)c(=O)n1 (stereo unspecified) + Nc1ccc(C#CCN(C(=O)Cc2ncc(C(F)(F)F)cc2C(F)(F)F)c2ccc(F)cc2)nn1
Second compound 0.0316 µM
  IC50: < 31.6 nM
Second compound 0.1 µM
  IC50: < 31.6 nM
Second compound 0.316 µM
  IC50: < 31.6 nM
Second compound 1 µM
  IC50: < 31.6 nM
Second compound 3.16 µM
  IC50: < 31.6 nM
Second compound 10 µM
  IC50: < 31.6 nM
[1]
  viability, T/C: 3.03%
[2]
  viability, T/C: 4.05%
[3]
  viability, T/C: 4.41%
[4]
  viability, T/C: 4.06%
[25]
  viability, T/C: 2.78%
[26]
  viability, T/C: 2.3%
[5]
  viability, T/C: 3.67%
[6]
  viability, T/C: 4.46%
[7]
  viability, T/C: 3.95%
[8]
  viability, T/C: 3.72%
[27]
  viability, T/C: 3.07%
[28]
  viability, T/C: 1.99%
[9]
  viability, T/C: 3.79%
[10]
  viability, T/C: 3.81%
[11]
  viability, T/C: 4.1%
[12]
  viability, T/C: 4.23%
[29]
  viability, T/C: 2.51%
[30]
  viability, T/C: 2.13%
[13]
  viability, T/C: 3.62%
[14]
  viability, T/C: 4.03%
[15]
  viability, T/C: 4.21%
[16]
  viability, T/C: 3.9%
[31]
  viability, T/C: 2.69%
[32]
  viability, T/C: 1.87%
[17]
  viability, T/C: 4.08%
[18]
  viability, T/C: 3.7%
[19]
  viability, T/C: 3.44%
[20]
  viability, T/C: 3.79%
[33]
  viability, T/C: 2.78%
[34]
  viability, T/C: 1.9%
[21]
  viability, T/C: 5.53%
[22]
  viability, T/C: 3.31%
[23]
  viability, T/C: 3.9%
[24]
  viability, T/C: 3.4%
[35]
  viability, T/C: 3.17%
[36]
  viability, T/C: 2.42%

## O=C(c1cc(Cc2n[nH]c(=O)c3ccccc23)ccc1F)N1CCN(C(=O)C2CC2)CC1 + Nc1ccc(C#CCN(C(=O)Cc2ncc(C(F)(F)F)cc2C(F)(F)F)c2ccc(F)cc2)nn1
Second compound 0.0316 µM
  IC50: 5080 nM
Second compound 0.1 µM
  IC50: 2540 nM
Second compound 0.316 µM
  IC50: 4010 nM
Second compound 1 µM
  IC50: 4530 nM
Second compound 3.16 µM
  IC50: 4240 nM
Second compound 10 µM
  IC50: 4740 nM
[1]
  viability, T/C: 118%
[2]
  viability, T/C: 96%
[3]
  viability, T/C: 93.7%
[4]
  viability, T/C: 91.6%
[25]
  viability, T/C: 58.1%
[26]
  viability, T/C: 32.9%
[5]
  viability, T/C: 108%
[6]
  viability, T/C: 103%
[7]
  viability, T/C: 83.2%
[8]
  viability, T/C: 66.8%
[27]
  viability, T/C: 47%
[28]
  viability, T/C: 27.4%
[9]
  viability, T/C: 90.3%
[10]
  viability, T/C: 94%
[11]
  viability, T/C: 98.1%
[12]
  viability, T/C: 93.5%
[29]
  viability, T/C: 55%
[30]
  viability, T/C: 30.9%
[13]
  viability, T/C: 106%
[14]
  viability, T/C: 94.5%
[15]
  viability, T/C: 89.6%
[16]
  viability, T/C: 85.2%
[31]
  viability, T/C: 58.2%
[32]
  viability, T/C: 27.8%
[17]
  viability, T/C: 113%
[18]
  viability, T/C: 104%
[19]
  viability, T/C: 112%
[20]
  viability, T/C: 92.5%
[33]
  viability, T/C: 58.6%
[34]
  viability, T/C: 26%
[21]
  viability, T/C: 104%
[22]
  viability, T/C: 94.8%
[23]
  viability, T/C: 86.7%
[24]
  viability, T/C: 94.8%
[35]
  viability, T/C: 63.5%
[36]
  viability, T/C: 25.1%
